Measured values taken from patent US11078168B2, “Substituted N-hydroxyamidinoheterocycles as modulators of indoleamine 2,3-dioxygenase” (PHENEX DISCOVERY VERWALTUNGS-GMBH, priority 2016, dated 2021).

Target: T1, Indoleamine 2,3-dioxygenase (Homo sapiens, UniProt P14902)
T1 construct: endogenous in cells; host or cells: SKOV-3 (ATCC HTB-77), stimulated with interferon gamma
Test: SKOV-3 cellular Indoleamine 2,3-dioxygenase assay
Conditions: SKOV-3 cells, 50 ng/ml Interferon gamma, 100 μM L-Tryptophan, 24 hours, N-Formylkynurenin fluorescence detection; read-out: cell based activity
Summary of the method: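 SKOV-3 cells stimulated with 50 ng/ml interferon gamma, exposed to compound dilutions with L-tryptophan at 100 µM final for 24 h at 37 °C. N-formylkynurenine detected by 200 mM 3-methylpiperidine, 65 °C for 20 min, fluorescence ex 405/em 535 nm.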

T1 sequence (P14902 whole entry): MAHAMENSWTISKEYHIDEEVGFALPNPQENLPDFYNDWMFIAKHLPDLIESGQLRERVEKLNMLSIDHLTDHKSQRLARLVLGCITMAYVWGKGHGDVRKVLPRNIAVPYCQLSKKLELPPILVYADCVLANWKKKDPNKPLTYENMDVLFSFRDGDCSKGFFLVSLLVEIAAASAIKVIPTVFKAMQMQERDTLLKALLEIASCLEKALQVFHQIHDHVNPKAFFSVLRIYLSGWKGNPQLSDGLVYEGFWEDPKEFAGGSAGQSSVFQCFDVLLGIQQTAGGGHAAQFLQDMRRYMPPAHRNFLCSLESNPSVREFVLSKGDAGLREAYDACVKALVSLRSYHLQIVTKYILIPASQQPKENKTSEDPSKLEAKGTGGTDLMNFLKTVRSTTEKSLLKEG

Q: How did the IC50 turn out when CS(=O)(=O)NCCOc1nonc1/C(=N/O)Nc1ccc(F)c(Br)c1 [Example 1, N-(3-Bromo-4-fluorophenyl)-N′-hydroxy-4-(2-(methylsulfonamido)ethoxy)-1,2,5-oxadiazole-3-carboximidamide] was run?
A: < 100 nM

Q: Which IC50 does the source give for Nc1c(NCCOc2nonc2C(=NO)Nc2ccc(F)c(Cl)c2)c(=O)c1=O [Example 2, 4-(2-((2-Amino-3,4-dioxocyclobut-1-en-1-yl)amino)ethoxy)-N-(3-chloro-4-fluorophenyl)-N′-hydroxy-1,2,5-oxadiazole-3-carboximidamide] here?
A: < 100 nM

Q: How did the IC50 turn out when O=C(NCCOc1nonc1C(=NO)Nc1ccc(F)c(Cl)c1)C1COCCN1 (stereo not drawn) [Example 3, N-(2-((4-(N-(3-Chloro-4-fluorophenyl)-N′-hydroxycarbamimidoyl)-1,2,5-oxadiazol-3-yl)oxy)ethyl)morpholine-3-carboxamide] was run?
A: 100 to 1000 nM

Q: With NC(=O)C(=O)NCCOc1nonc1C(=NO)Nc1ccc(F)c(Cl)c1 [Example 4, N^1-(2-((4-(N-(3-Chloro-4-fluorophenyl)-N′-hydroxycarbamimidoyl)-1,2,5-oxadiazol-3-yl)oxy)ethyl)oxalamide] as the molecule, how does the IC50 read?
A: 100 to 1000 nM

Q: With NC(=O)NCCOc1nonc1C(=NO)Nc1ccc(F)c(Cl)c1 [Example 5, N-(3-Chloro-4-fluorophenyl)-N′-hydroxy-4-(2-ureidoethoxy)-1,2,5-oxadiazole-3-carboximidamide] as the molecule, how does the IC50 read?
A: < 100 nM

Q: NS(=O)(=O)NCCOc1nonc1/C(=N/O)Nc1ccc(F)c(Br)c1 [Example 6, N-(3-Bromo-4-fluorophenyl)-N′-hydroxy-4-(2-(sulfamoylamino)ethoxy)-1,2,5-oxadiazole-3-carboximidamide] was tested. Which IC50 did it give?
A: < 100 nM

Q: With NC(=O)C1(C(=O)NCCOc2nonc2C(=NO)Nc2ccc(F)c(Cl)c2)CC1 [Example 7, N-(2-((4-(N-(3-chloro-4-fluorophenyl)-N′-hydroxycarbamimidoyl)-1,2,5-oxadiazol-3-yl)oxy)ethyl)cyclopropane-1,1-dicarboxamide] as the molecule, how does the IC50 read?
A: < 100 nM

Q: With ON=C(Nc1ccc(F)c(Br)c1)c1nonc1OCc1ccccc1 [Example 8, 4-(Benzyloxy)-N-(3-bromo-4-fluorophenyl)-N′-hydroxy-1,2,5-oxadiazole-3-carboximidamide] as the molecule, how does the IC50 read?
A: > 1000 nM

Q: Which IC50 does the source give for O=C(NCCOc1nonc1C(=NO)Nc1ccc(F)c(Cl)c1)c1nnn[nH]1 [Example 9, N-(2-((4-(N-(3-chloro-4-fluorophenyl)-N′-hydroxycarbamimidoyl)-1,2,5-oxadiazol-3-yl)oxy)ethyl)-1H-tetrazole-5-carboxamide] here?
A: > 1000 nM

Q: For ON=C(Nc1ccc(F)c(Cl)c1)c1nonc1OCCN1CCOCC1 [Example 10, N-(3-Chloro-4-fluorophenyl)-N′-hydroxy-4-(2-morpholinoethoxy)-1,2,5-oxadiazole-3-carboximidamide], which IC50 is on record?
A: 100 to 1000 nM

Q: Which IC50 does the source give for NC(=O)CCCOc1nonc1C(=NO)Nc1ccc(F)c(Cl)c1 [Example 11, 4-((4-(N-(3-Chloro-4-fluorophenyl)-N′-hydroxycarbamimidoyl)-1,2,5-oxadiazol-3-yl)oxy)butanamide] here?
A: 100 to 1000 nM

Q: Which IC50 does the source give for Cc1nnc(CCCOc2nonc2C(=NO)Nc2ccc(F)c(Cl)c2)[nH]1 [Example 12, N-(3-Chloro-4-fluorophenyl)-N′-hydroxy-4-(3-(5-methyl-4H-1,2,4-triazol-3-yl)propoxy)-1,2,5-oxadiazole-3-carboximidamide] here?
A: 100 to 1000 nM

Q: For O=C(O)CCOc1nonc1C(=NO)Nc1ccc(F)c(Cl)c1 [Example 13, 3-((4-(N-(3-Chloro-4-fluorophenyl)-N′-hydroxycarbamimidoyl)-1,2,5-oxadiazol-3-yl)oxy)propanoic acid], which IC50 is on record?
A: > 1000 nM

Q: For Cc1nnc(NCCOc2nonc2C(=NO)Nc2ccc(F)c(Cl)c2)o1 [Example 14, N-(3-Chloro-4-fluorophenyl)-N′-hydroxy-4-(2-((5-methyl-1,3,4-oxadiazol-2-yl)amino)ethoxy)-1,2,5-oxadiazole-3-carboximidamide], which IC50 is on record?
A: 100 to 1000 nM

Q: For Nc1nnc(NCCOc2nonc2C(=NO)Nc2ccc(F)c(Cl)c2)[nH]1 [Example 15, 4-(2-((5-Amino-4H-1,2,4-triazol-3-yl)amino)ethoxy)-N-(3-chloro-4-fluorophenyl)-N′-hydroxy-1,2,5-oxadiazole-3-carboximidamide], which IC50 is on record?
A: 100 to 1000 nM

Q: How did the IC50 turn out when CC(CN)Oc1nonc1C(=NO)Nc1ccc(F)c(Cl)c1 (stereo not drawn) [Example 17, 4-((1-Aminopropan-2-yl)oxy)-N-(3-chloro-4-fluorophenyl)-N′-hydroxy-1,2,5-oxadiazole-3-carboximidamide] was run?
A: 100 to 1000 nM

Q: O=C(NCCOc1nonc1C(=NO)Nc1ccc(F)c(Cl)c1)N1C[C@@H](O)[C@@H](O)C1 [Example 18, (3S,4R)—N-(2-((4-(N-(3-Chloro-4-fluorophenyl)-N′-hydroxycarbamimidoyl)-1,2,5-oxadiazol-3-yl)oxy)ethyl)-3,4-dihydroxypyrrolidine-1-carboxamide] was tested. Which IC50 did it give?
A: 100 to 1000 nM

Q: Which IC50 does the source give for CS(=O)(=O)CCOc1nonc1C(=NO)Nc1ccc(F)c(Cl)c1 [Example 20, N-(3-Chloro-4-fluorophenyl)-N′-hydroxy-4-(2-(methylsulfonyl)ethoxy)-1,2,5-oxadiazole-3-carboximidamide] here?
A: > 1000 nM

Q: CS(=N)(=O)NCCOc1nonc1C(=NO)Nc1ccc(F)c(Cl)c1 (stereo not drawn) [Example 21, N-(3-Chloro-4-fluorophenyl)-N-hydroxy-4-(2-(methylsulfonoamidimidamido)ethoxy)-1,2,5-oxadiazole-3-carboximidamide] was tested. Which IC50 did it give?
A: 100 to 1000 nM

Q: Which IC50 does the source give for COc1nonc1C(=NO)Nc1cccc(CCCl)c1 [Example 22, N-(3-(2-Chloroethyl)phenyl)-N′-hydroxy-4-methoxy-1,2,5-oxadiazole-3-carboximidamide] here?
A: > 1000 nM

Q: How did the IC50 turn out when CS(=O)(=O)NCCSc1nonc1/C(=N/O)Nc1ccc(F)c(Br)c1 [Example 100, N-(3-Bromo-4-fluorophenyl)-N′-hydroxy-4-((2-(methylsulfonamido)ethyl)thio)-1,2,5-oxadiazole-3-carboximidamide] was run?
A: < 100 nM

Q: How did the IC50 turn out when NS(=O)(=O)NCCSc1nonc1/C(=N/O)Nc1ccc(F)c(Br)c1 [Example 101, N-(3-Bromo-4-fluorophenyl)-N′-hydroxy-4-((2-(sulfamoylamino)ethyl)thio)-1,2,5-oxadiazole-3-carboximidamide] was run?
A: < 100 nM

Q: With Nc1c(NCCSc2nonc2C(=NO)Nc2ccc(F)c(Cl)c2)c(=O)c1=O [Example 102, 4-((2-((2-Amino-3,4-dioxocyclobut-1-en-1-yl)amino)ethyl)thio)—N-(3-chloro-4-fluorophenyl)-N′-hydroxy-1,2,5-oxadiazole-3-carboximidamide] as the molecule, how does the IC50 read?
A: < 100 nM

Q: For ON=C(Nc1ccc(F)c(Cl)c1)c1nonc1SCc1ccccc1 [Example 103, 4-(Benzylthio)—N-(3-chloro-4-fluorophenyl)-N′-hydroxy-1,2,5-oxadiazole-3-carboximidamide], which IC50 is on record?
A: 100 to 1000 nM

Q: How did the IC50 turn out when CSc1nonc1/C(=N/O)Nc1ccc(F)c(Br)c1 [Example 103/1, N-(3-bromo-4-fluorophenyl)-N′-hydroxy-4-(methylthio)-1,2,5-oxadiazole-3-carboximidamide] was run?
A: < 100 nM

Q: How did the IC50 turn out when ON=C(Nc1ccc(F)c(Br)c1)c1nonc1SCC(F)(F)F [Example 103/2] was run?
A: < 100 nM

Q: ON=C(Nc1ccc(F)c(Br)c1)c1nonc1SC1CC1 [Example 103/3] was tested. Which IC50 did it give?
A: < 100 nM

Q: For O=S(=O)(Cc1ccccc1)c1nonc1C(=NO)Nc1ccc(F)c(Cl)c1 [Example 104, 4-(Benzylsulfonyl)-N-(3-chloro-4-fluorophenyl)-N′-hydroxy-1,2,5-oxadiazole-3-carboximidamide], which IC50 is on record?
A: > 1000 nM

Q: With C[S+]([O-])c1nonc1C(=NO)Nc1ccc(F)c(Br)c1 (stereo not drawn) [Example 105, N-(3-Bromo-4-fluorophenyl)-N′-hydroxy-4-(methylsulfinyl)-1,2,5-oxadiazole-3-carboximidamide] as the molecule, how does the IC50 read?
A: 100 to 1000 nM

Q: With CS(=N)(=O)c1nonc1C(=NO)Nc1ccc(F)c(Br)c1 (stereo not drawn) [Example 106, N-(3-Bromo-4-fluorophenyl)-N′-hydroxy-4-(S-methylsulfonimidoyl)-1,2,5-oxadiazole-3-carboximidamide] as the molecule, how does the IC50 read?
A: > 1000 nM

Q: O=C(NCCSc1nonc1C(=NO)Nc1ccc(F)c(C(F)F)c1)C(O)CO (stereo not drawn) [Example 107, N-(2-((4-(N-(3-(Difluoromethyl)-4-fluorophenyl)-N′-hydroxycarbamimidoyl)-1,2,5-oxadiazol-3-yl)thio)ethyl)-2,3-dihydroxypropanamide] was tested. Which IC50 did it give?
A: < 100 nM

Q: For CC1(O)CN(CCSc2nonc2C(=NO)Nc2ccc(F)c(C(F)F)c2)C1 [Example 108, N-(3-(Difluoromethyl)-4-fluorophenyl)-N′-hydroxy-4-((2-(3-hydroxy-3-methylazetidin-1-yl)ethyl)thio)-1,2,5-oxadiazole-3-carboximidamide], which IC50 is on record?
A: < 100 nM

Q: Nc1c(NCC[S+]([O-])c2nonc2C(=NO)Nc2ccc(F)c(Cl)c2)c(=O)c1=O (stereo not drawn) [Example 109, 4-((2-((2-Amino-3,4-dioxocyclobut-1-en-1-yl)amino)ethyl)sulfinyl)-N-(3-chloro-4-fluorophenyl)-N′-hydroxy-1,2,5-oxadiazole-3-carboximidamide] was tested. Which IC50 did it give?
A: 100 to 1000 nM

Q: Which IC50 does the source give for Nc1nnc(NCCSc2nonc2C(=NO)Nc2ccc(F)c(C(F)F)c2)[nH]1 [Example 110, 4-((2-((5-Amino-4H-1,2,4-triazol-3-yl)amino)ethyl)thio)—N-(3-(difluoromethyl)-4-fluorophenyl)-N′-hydroxy-1,2,5-oxadiazole-3-carboximidamide] here?
A: 100 to 1000 nM

Q: With Cc1nnc(NCCSc2nonc2C(=NO)Nc2ccc(F)c(C(F)F)c2)o1 [Example 111, N-(3-(Difluoromethyl)-4-fluorophenyl)-N′-hydroxy-4-((2-((5-methyl-1,3,4-oxadiazol-2-yl)amino)ethyl)thio)-1,2,5-oxadiazole-3-carboximidamide] as the molecule, how does the IC50 read?
A: < 100 nM

Q: Which IC50 does the source give for NS(=O)(=O)NCCSc1nonc1C(=NO)Nc1cccc(C(F)F)c1 [Example 112, N-(3-(Difluoromethyl)phenyl)-N′-hydroxy-4-((2-(sulfamoylamino)ethyl)thio)-1,2,5-oxadiazole-3-carboximidamide] here?
A: < 100 nM
